Data on one substance can be found in patent US20040038222A1 (priority 2001, published 2004).

Experiment [1] relates to C57BL/6J and C3H/HeJ primary bone marrow-derived macrophages.
A further experiment deals with KiflC in NIH3T3 cells. Conditions: cited from earlier work.
Chain of KiflC in NIH3T3 cells (O35071 whole entry): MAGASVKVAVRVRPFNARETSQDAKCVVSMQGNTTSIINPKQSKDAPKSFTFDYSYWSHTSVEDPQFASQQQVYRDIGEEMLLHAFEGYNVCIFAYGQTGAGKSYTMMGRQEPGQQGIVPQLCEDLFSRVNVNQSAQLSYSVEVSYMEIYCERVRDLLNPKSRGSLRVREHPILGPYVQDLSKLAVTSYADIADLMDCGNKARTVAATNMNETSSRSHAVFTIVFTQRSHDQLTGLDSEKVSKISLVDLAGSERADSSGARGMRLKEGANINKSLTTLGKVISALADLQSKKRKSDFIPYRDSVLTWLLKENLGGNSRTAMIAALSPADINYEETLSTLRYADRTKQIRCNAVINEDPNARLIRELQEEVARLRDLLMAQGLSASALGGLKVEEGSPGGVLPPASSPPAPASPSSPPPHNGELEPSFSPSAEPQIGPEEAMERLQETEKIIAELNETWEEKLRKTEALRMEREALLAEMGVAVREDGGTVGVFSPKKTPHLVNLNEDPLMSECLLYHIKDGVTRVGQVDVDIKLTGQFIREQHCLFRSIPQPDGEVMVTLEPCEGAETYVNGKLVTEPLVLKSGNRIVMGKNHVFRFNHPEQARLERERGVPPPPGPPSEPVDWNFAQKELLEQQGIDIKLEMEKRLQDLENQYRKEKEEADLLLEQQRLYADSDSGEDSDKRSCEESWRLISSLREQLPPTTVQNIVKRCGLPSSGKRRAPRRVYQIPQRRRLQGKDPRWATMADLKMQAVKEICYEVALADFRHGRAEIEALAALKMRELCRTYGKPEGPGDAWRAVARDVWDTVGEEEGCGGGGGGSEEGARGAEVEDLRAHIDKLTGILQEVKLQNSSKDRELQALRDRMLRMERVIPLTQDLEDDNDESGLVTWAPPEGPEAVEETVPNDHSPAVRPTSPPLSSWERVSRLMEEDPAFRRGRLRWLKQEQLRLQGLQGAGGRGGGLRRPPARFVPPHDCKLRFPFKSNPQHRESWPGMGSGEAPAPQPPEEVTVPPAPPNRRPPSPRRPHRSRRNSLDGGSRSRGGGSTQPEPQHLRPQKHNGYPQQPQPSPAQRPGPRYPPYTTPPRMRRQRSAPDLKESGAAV

Consider brefeldin A [BFA], for which the “Susceptibility of susceptible macrophages to intoxication with LF in the presence of BFA” value in experiment [1] is listed as “unaltered”. The “Relocalization of KiflC” value in the experiment with KiflC in NIH3T3 cells is “dramatic relocalization of KiflC to the Endoplasmic Reticulum”.
